Assays:
EpiSC-derived OPCs = test: In vitro phenotypic screening of OPCs (MBP staining, high-content imaging); assay type: cell-based, mouse; details: Mus musculus, 72 h, percentage of MBP+ oligodendrocytes, 3 days, 0.5 nM to 1000 nM; read-out: OPC EC50
Method in brief: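 EpiSC-derived mouse OPCs seeded at 150,000/cm^2 on laminin in N2B27 without growth factors, treated 3 days at 37° C. with compound (8 points, 1000 nM to 0.5 nM). Fixed cells stained for MBP and DAPI and imaged; percentage of MBP+ oligodendrocytes fitted by Hill equation for EC50.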

[1] = molecular target: human emopamil binding protein and human 7-dehydrocholesterol reductase co-expressing cells (hEBP-DHCR7 membrane) (Homo sapiens (Human), UniProt Q15125); test: Radioligand filter binding assay on hEBP-DHCR7 membrane; details: [3H]-(S)-6-(2-Methyl-3-(6-(trifluoromethyl)pyridin-3-yl)propyl)-2-thia-6-azaspiro[3.4]octane 2,2-dioxide radioligand, HEK293 membrane co-expressing hEBP and hDHCR7
human emopamil binding protein and human 7-dehydrocholesterol reductase co-expressing cells (hEBP-DHCR7 membrane), sequence (Q15125 whole entry): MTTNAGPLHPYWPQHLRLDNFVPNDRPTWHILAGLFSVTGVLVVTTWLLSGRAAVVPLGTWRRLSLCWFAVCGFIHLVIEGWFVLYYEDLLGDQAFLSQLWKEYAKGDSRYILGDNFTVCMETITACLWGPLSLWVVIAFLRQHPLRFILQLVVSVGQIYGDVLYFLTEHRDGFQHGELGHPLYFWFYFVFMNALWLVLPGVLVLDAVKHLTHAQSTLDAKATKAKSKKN
Method in brief: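 HEK293 cells transiently co-expressing human EBP and DHCR7 supplied whole-cell membranes (10 μg/well), incubated 3 h at 22 °C with [3H]-labelled spiro-octane dioxide ligand (added at 25 nM) and compound (0.06-5000 nM final, 8 doses, n=2). Bound ligand was collected on PEI-treated GF/B filters and counted by scintillation. IC50 was Hill-fitted from % inhibition and reported as Ki.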

[2] = tested on: EBP (zymostenol accumulation in EpiSC-derived OPCs); test: GC/MS-based sterol profiling, zymostenol accumulation in OPCs; assay type: cell-based, mouse; details: Mus musculus, 24 h, EpiSC-derived OPCs, 24 hr treatment, 8 doses from 0.15 nM to 333 nM; read-out: Zymostenol GCMS EC50
Method in brief: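 EpiSC-derived OPCs (100,000/well) were treated 24 h in N2B27 without growth factors. Sterols were TMS-derivatized and analysed by GC/MS full-scan EI, quantified against cholesterol-d7. Zymostenol was normalized to the level after 24 h with 100 nM positive control reference.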

Compound	EC50 (EpiSC-derived OPCs) [nM]	Ki [1] [nM]	EC50 [2] [nM]
O=S1(=O)CC2(CCN(C3CCN(c4ncc(C(F)(F)F)cc4F)CC3)CC2)C1 [Compound 52, 7-(1-(3-Fluoro-5-(trifluoromethyl)pyridin-2-yl)piperidin-4-yl)-2-thia-7-azaspiro[3.5]nonane 2,2-dioxide]	7.7	18	4.8
O=S1(=O)CC2(CCN([C@H]3CC[C@H](c4ncc(C(F)(F)F)cc4F)CC3)C2)C1 [Compound 59, 6-((1r,4r)-4-(3-Fluoro-5-(trifluoromethyl)pyridin-2-yl)cyclohexyl)-2-thia-6-azaspiro[3.4]octane 2,2-dioxide]	82	72	13
O=S1(=O)CC2(CCN([C@H]3CC[C@H](c4cccc(C(F)(F)F)n4)CC3)C2)C1 [Compound 62B, 6-((1r,4r)-4-(6-(trifluoromethyl)pyridin-2-yl)cyclohexyl)-2-thia-6-azaspiro[3.4]octane 2,2-dioxide]	13	37	6.4
O=S1(=O)CC2(CCN([C@H]3CC[C@H](c4ccc(F)c(F)c4)CC3)C2)C1 [Compound 70A, 6-((1r,4r)-4-(3,4-difluorophenyl)cyclohexyl)-2-thia-6-azaspiro[3.4]octane 2,2-dioxide]	18	6.5	4
CC(C)(C)n1nc(C(F)(F)F)cc1[C@H]1CC[C@H](N2CCC3(C2)CS(=O)(=O)C3)CC1 [Compound 73, 6-((1r,4r)-4-(1-(tert-Butyl)-3-(trifluoromethyl)-1H-pyrazol-5-yl)cyclohexyl)-2-thia-6-azaspiro[3.4]octane 2,2-dioxide]	110	21	33
CC(C)(C)n1nc(C2CC2)nc1[C@H]1CC[C@@H](N2CCC3(C2)CS(=O)(=O)C3)C1 [Compound 74B, 6-((1R,3S)-3-(1-(tert-butyl)-3-cyclopropyl-1H-1,2,4-triazol-5-yl)cyclopentyl)-2-thia-6-azaspiro[3.4]octane 2,2-dioxide]	76	494	17
O=S1(=O)CC2(CCN([C@H]3CC[C@H](c4ccc(C(F)(F)F)nc4C4CC4)CC3)C2)C1 [Compound 75, 6-((1r,4r)-4-(2-Cyclopropyl-6-(trifluoromethyl)pyridin-3-yl)cyclohexyl)-2-thia-6-azaspiro[3.4]octane 2,2-dioxide]	5	11	3.2
O=S1(=O)CC2(CCN([C@H]3CC[C@H](c4ccc(F)c(F)c4)CC3)CC2)C1 [Compound 77A, 7-((1r,4r)-4-(3,4-Difluorophenyl)cyclohexyl)-2-thia-7-azaspiro[3.5]nonane 2,2-dioxide]	13	33	5.7
O=S1(=O)CC2(CCN([C@H]3CC[C@@H](c4ncc(C(F)(F)F)cc4F)CC3)CC2)C1 [Compound 80B, 7-((1s,4s)-4-(3-fluoro-5-(trifluoromethyl)pyridin-2-yl)cyclohexyl)-2-thia-7-azaspiro[3.5]nonane 2,2-dioxide]	38	28	8
O=S1(=O)CC2(CCN([C@H]3CC[C@H](c4cc(C(F)(F)F)ncn4)CC3)C2)C1 [Compound 83, 6-((1r,4r)-4-(6-(Trifluoromethyl)pyrimidin-4-yl)cyclohexyl)-2-thia-6-azaspiro[3.4]octane 2,2-dioxide]	280	120	34
CC(C)(C)n1nc(C(F)(F)F)cc1[C@H]1CC[C@@H](N2CCC3(CC2)CS(=O)(=O)C3)CC1 [Compound 85B, 7-((1s,4s)-4-(1-(tert-butyl)-3-(trifluoromethyl)-1H-pyrazol-5-yl)cyclohexyl)-2-thia-7-azaspiro[3.5]nonane 2,2-dioxide]	48	300	17
O=S1(=O)CC2(CCN([C@H]3CC[C@H](c4ccnc(C(F)(F)F)n4)CC3)C2)C1 [Compound 88, 6-((1r,4r)-4-(2-(Trifluoromethyl)pyrimidin-4-yl)cyclohexyl)-2-thia-6-azaspiro[3.4]octane 2,2-dioxide]	110	73	16
O=S1(=O)CCC2(CCN([C@H]3CC[C@H](c4ccc(C(F)(F)F)nc4)CC3)C2)CC1 [Compound 95A, 2-((1r,4r)-4-(6-(Trifluoromethyl)pyridin-3-yl)cyclohexyl)-8-thia-2-azaspiro[4.5]decane 8,8-dioxide]	520	710	170
O=S1(=O)CCC2(CCN([C@H]3CC[C@@H](c4ccc(C(F)(F)F)nc4)CC3)C2)CC1 [Compound 95B, 2-((1s,4s)-4-(6-(trifluoromethyl)pyridin-3-yl)cyclohexyl)-8-thia-2-azaspiro[4.5]decane 8,8-dioxide]	43	170	22

The remaining compounds from weak to strong by EC50 (EpiSC-derived OPCs), led by results:

EC50 (EpiSC-derived OPCs) [nM]	Ki [1] [nM]	EC50 [2] [nM]	Compound
230	154	31	CC(C)(C)n1nc(C2CC2)nc1[C@@H]1CC[C@H](N2CCC3(C2)CS(=O)(=O)C3)C1 [Compound 74A, 6-((1S,3R)-3-(1-(tert-butyl)-3-cyclopropyl-1H-1,2,4-triazol-5-yl)cyclopentyl)-2-thia-6-azaspiro[3.4]octane 2,2-dioxide]
49	17	13	O=S1(=O)CC2(CCN(C3CCN(c4ncc(F)cc4C(F)(F)F)CC3)C2)C1 [Compound 45, 6-(1-(5-Fluoro-3-(trifluoromethyl)pyridin-2-yl)piperidin-4-yl)-2-thia-6-azaspiro[3.4]octane 2,2-dioxide]
36	22	9.7	O=S1(=O)CC2(CCCN([C@H]3CC[C@H](c4ccc(C(F)(F)F)nc4)CC3)C2)C1 [Compound 79, 6-((1r,4r)-4-(6-(Trifluoromethyl)pyridin-3-yl)cyclohexyl)-2-thia-6-azaspiro[3.5]nonane 2,2-dioxide]
33	12	8.8	O=S1(=O)CC2(CCN([C@H]3CC[C@H](c4cc(C(F)(F)F)ncc4Cl)CC3)C2)C1 [Compound 87, 6-((1r,4r)-4-(5-Chloro-2-(trifluoromethyl)pyridin-4-yl)cyclohexyl)-2-thia-6-azaspiro[3.4]octane 2,2-dioxide]
21	133	10	O=S1(=O)CC2(CCN([C@H]3CC[C@H](c4ccnc(C(F)(F)F)c4)CC3)C2)C1 [Compound 60A, 6-((1r,4r)-4-(2-(trifluoromethyl)pyridin-4-yl)cyclohexyl)-2-thia-6-azaspiro[3.4]octane 2,2-dioxide]
18	26	8.3	Cc1nc(C(F)(F)F)ccc1[C@H]1CC[C@H](N2CCC3(C2)CS(=O)(=O)C3)CC1 [Compound 51A, 6-((1r,4r)-4-(2-Methyl-6-(trifluoromethyl)pyridin-3-yl)cyclohexyl)-2-thia-6-azaspiro[3.4]octane 2,2-dioxide]
15	8	5	O=S1(=O)CC2(CCN([C@H]3CC[C@@H](c4ccc(F)c(F)c4)CC3)CC2)C1 [Compound 77B, 7-((1s,4s)-4-(3,4-difluorophenyl)cyclohexyl)-2-thia-7-azaspiro[3.5]nonane 2,2-dioxide]
14	9	4	O=S1(=O)CC2(CCN(C3CCN(c4ncc(C(F)(F)F)cc4C4CC4)CC3)C2)C1 [Compound 44, 6-(1-(3-Cyclopropyl-5-(trifluoromethyl)pyridin-2-yl)piperidin-4-yl)-2-thia-6-azaspiro[3.4]octane 2,2-dioxide]
11	15	3.7	CCc1nc(C(F)(F)F)ccc1[C@H]1CC[C@H](N2CCC3(C2)CS(=O)(=O)C3)CC1 [Compound 64A, 6-((1r,4r)-4-(2-ethyl-6-(trifluoromethyl)pyridin-3-yl)cyclohexyl)-2-thia-6-azaspiro[3.4]octane 2,2-dioxide]
8.9	14	4.1	CC(C)c1nc(C(F)(F)F)ccc1[C@H]1CC[C@H](N2CCC3(C2)CS(=O)(=O)C3)CC1 [Compound 65A, 6-((1r,4r)-4-(2-isopropyl-6-(trifluoromethyl)pyridin-3-yl)cyclohexyl)-2-thia-6-azaspiro[3.4]octane 2,2-dioxide]
4	31	3.7	O=S1(=O)CC2(CCN([C@H]3CC[C@H](c4ncc(C(F)(F)F)cc4Cl)CC3)C2)C1 [Compound 48A, 6-((1r,4r)-4-(3-chloro-5-(trifluoromethyl)pyridin-2-yl)cyclohexyl)-2-thia-6-azaspiro[3.4]octane 2,2-dioxide]

— patent publication US20240398781A1, “SPIROCYCLIC CYCLIC MODULATORS OF CHOLESTEROL BIOSYNTHESIS AND THEIR USE FOR PROMOTING REMYELINATION” (GENENTECH, INC., priority 2021, published 2024)
